From the supplement of paper PMC10307832

What was measured:
Experiment in all cases: relative viability (nuclei count vs DMSO), 5 days (fraction); higher = more cells survive
Calu-6 = tested on: Calu-6
Procedure, shortened: (§1)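 A single step with final 0.05% Triton X-100, 1% formaldehyde and 1 ug/ml Hoechst fixed the cells and stained nuclei 5 days after treatment. Lung cancer cell lines in 1536-well plates had been treated by pin tool the day after seeding with one drug alone or a fixed anchor-drug dose plus five library-drug doses (not always all listed) in √10 steps, and nuclei were counted on 4× images. Relative viability is the ratio of nuclei in treated wells to nuclei in vehicle wells, taken as the median of duplicate plates.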

NCI-H1563 = tested on: NCI-H1563
Procedure, shortened: as §1

IA-LM = tested on: IA-LM
Procedure, shortened: as §1

A549 = tested on: A549
Procedure, shortened: as §1

EBC-1 = tested on: EBC-1
Procedure, shortened: as §1

NCI-H1703 = tested on: NCI-H1703
Procedure, shortened: as §1

NCI-H1299 = tested on: NCI-H1299
Procedure, shortened: as §1

## O=c1[nH]c2ccccc2n1C1CCN(CCCC(c2ccc(F)cc2)c2ccc(F)cc2)CC1 [Pimozide] + CS(=O)(=O)N1CCN(Cc2cc3nc(-c4cccc5[nH]ncc45)nc(N4CCOCC4)c3s2)CC1 [Pictilisib] (partner 1 µM)
Calu-6; first compound 0.08 µM
  relative viability: 0.952
Calu-6; first compound 0.253 µM
  relative viability: 0.984
Calu-6; first compound 0.8 µM
  relative viability: 0.808
Calu-6; first compound 2.53 µM
  relative viability: 0.84
Calu-6; first compound 8 µM
  relative viability: 0.872
NCI-H1563; first compound 0.08 µM
  relative viability: 0.654
NCI-H1563; first compound 0.253 µM
  relative viability: 0.646
NCI-H1563; first compound 0.8 µM
  relative viability: 0.667
NCI-H1563; first compound 2.53 µM
  relative viability: 0.642
NCI-H1563; first compound 8 µM
  relative viability: 0.637
IA-LM; first compound 0.253 µM
  relative viability: 0.28
IA-LM; first compound 0.8 µM
  relative viability: 0.288
IA-LM; first compound 2.53 µM
  relative viability: 0.404
IA-LM; first compound 8 µM
  relative viability: 0.438
A549; first compound 0.08 µM
  relative viability: 0.524
A549; first compound 0.253 µM
  relative viability: 0.472
A549; first compound 0.8 µM
  relative viability: 0.494
A549; first compound 2.53 µM
  relative viability: 0.385
A549; first compound 8 µM
  relative viability: 0.448
EBC-1; first compound 0.08 µM
  relative viability: 0.393
EBC-1; first compound 0.253 µM
  relative viability: 0.37
EBC-1; first compound 0.8 µM
  relative viability: 0.364
EBC-1; first compound 2.53 µM
  relative viability: 0.269
EBC-1; first compound 8 µM
  relative viability: 0.27
NCI-H1703; first compound 0.08 µM
  relative viability: 0.24
NCI-H1703; first compound 0.253 µM
  relative viability: 0.273
NCI-H1703; first compound 0.8 µM
  relative viability: 0.296
NCI-H1703; first compound 2.53 µM
  relative viability: 0.264
NCI-H1703; first compound 8 µM
  relative viability: 0.246
NCI-H1299; first compound 0.08 µM
  relative viability: 0.788
NCI-H1299; first compound 0.253 µM
  relative viability: 0.729
NCI-H1299; first compound 0.8 µM
  relative viability: 0.666
NCI-H1299; first compound 2.53 µM
  relative viability: 0.745
NCI-H1299; first compound 8 µM
  relative viability: 0.703

## O=c1[nH]c2ccccc2n1C1CCN(CCCC(c2ccc(F)cc2)c2ccc(F)cc2)CC1 [Pimozide] + CC(C)C[C@H](NC(=O)[C@H](Cc1ccccc1)NC(=O)c1cnccn1)B(O)O [Bortezomib] (partner 0.002 µM)
Calu-6; first compound 0.08 µM
  relative viability: 1
Calu-6; first compound 0.253 µM
  relative viability: 1.15
Calu-6; first compound 0.8 µM
  relative viability: 0.969
Calu-6; first compound 2.53 µM
  relative viability: 1.04
Calu-6; first compound 8 µM
  relative viability: 0.856
NCI-H1563; first compound 0.08 µM
  relative viability: 0.848
NCI-H1563; first compound 0.253 µM
  relative viability: 0.936
NCI-H1563; first compound 0.8 µM
  relative viability: 0.855
NCI-H1563; first compound 2.53 µM
  relative viability: 0.67
NCI-H1563; first compound 8 µM
  relative viability: 0.583
IA-LM; first compound 0.08 µM
  relative viability: 0.789
IA-LM; first compound 0.253 µM
  relative viability: 0.792
IA-LM; first compound 0.8 µM
  relative viability: 0.856
IA-LM; first compound 2.53 µM
  relative viability: 0.901
IA-LM; first compound 8 µM
  relative viability: 0.692
EBC-1; first compound 0.08 µM
  relative viability: 0.517
EBC-1; first compound 0.253 µM
  relative viability: 0.557
EBC-1; first compound 0.8 µM
  relative viability: 0.532
EBC-1; first compound 2.53 µM
  relative viability: 0.439
EBC-1; first compound 8 µM
  relative viability: 0.381
NCI-H1703; first compound 0.08 µM
  relative viability: 0.206
NCI-H1703; first compound 0.253 µM
  relative viability: 0.337
NCI-H1703; first compound 0.8 µM
  relative viability: 0.379
NCI-H1703; first compound 2.53 µM
  relative viability: 0.227
NCI-H1703; first compound 8 µM
  relative viability: 0.306
NCI-H1299; first compound 0.08 µM
  relative viability: 0.984
NCI-H1299; first compound 0.253 µM
  relative viability: 1.05
NCI-H1299; first compound 0.8 µM
  relative viability: 0.975
NCI-H1299; first compound 2.53 µM
  relative viability: 1.01
NCI-H1299; first compound 8 µM
  relative viability: 0.976

## O=C(O)CCCCC(CCSCc1ccccc1)SCc1ccccc1 (centres undefined) [CPI-613] + CC(C)C[C@H](NC(=O)[C@H](Cc1ccccc1)NC(=O)c1cnccn1)B(O)O [Bortezomib] (partner 0.002 µM)
Calu-6; first compound 5 µM
  relative viability: 0.945
Calu-6; first compound 15.81 µM
  relative viability: 0.887
Calu-6; first compound 50 µM
  relative viability: 0.879
Calu-6; first compound 158.11 µM
  relative viability: 0.241
Calu-6; first compound 500 µM
  relative viability: 0.0719
NCI-H1563; first compound 5 µM
  relative viability: 0.956
NCI-H1563; first compound 15.81 µM
  relative viability: 0.859
NCI-H1563; first compound 50 µM
  relative viability: 0.848
NCI-H1563; first compound 158.11 µM
  relative viability: 0.508
NCI-H1563; first compound 500 µM
  relative viability: 0.208
IA-LM; first compound 5 µM
  relative viability: 0.729
IA-LM; first compound 15.81 µM
  relative viability: 0.697
IA-LM; first compound 50 µM
  relative viability: 0.758
IA-LM; first compound 158.11 µM
  relative viability: 0.0988
IA-LM; first compound 500 µM
  relative viability: 0.0045
EBC-1; first compound 5 µM
  relative viability: 0.576
EBC-1; first compound 15.81 µM
  relative viability: 0.51
EBC-1; first compound 50 µM
  relative viability: 0.481
EBC-1; first compound 158.11 µM
  relative viability: 0.0828
EBC-1; first compound 500 µM
  relative viability: 0.0663
NCI-H1703; first compound 5 µM
  relative viability: 0.29
NCI-H1703; first compound 15.81 µM
  relative viability: 0.375
NCI-H1703; first compound 50 µM
  relative viability: 0.316
NCI-H1703; first compound 158.11 µM
  relative viability: 0.174
NCI-H1703; first compound 500 µM
  relative viability: 0.102
NCI-H1299; first compound 5 µM
  relative viability: 1.01
NCI-H1299; first compound 15.81 µM
  relative viability: 1.01
NCI-H1299; first compound 50 µM
  relative viability: 1.05
NCI-H1299; first compound 158.11 µM
  relative viability: 1.06
NCI-H1299; first compound 500 µM
  relative viability: 1.03
